The series is classed as in vivo, Sprague-Dawley rats. The following applies: mean of three rats, liver. Here is the method: The configurational stereoisomers of flocoumafen are separated by high-pressure liquid chromatography using a LUX® Cellulose-4 chiral column (00F-4490-B0, Phenomenex, Le Pecq, France) as stationary phase and a mixture formed from acetonitrile (A) and water comprising 0.1% by volume of formic acid (B), with an A/B volume ratio of 92/8, as mobile phase with a flow rate of the liquid mobile phase in the chromatography column of 0.25 mL/minute. 1 μL of extract comprising flocoumafen at a concentration of 1 μg/mL of acetonitrile is injected. Detection is performed by tandem mass spectrometry (MS/MS) in negative electrospray ionization (ESI) mode. The temperature of the nebulizer gas is 350° C. and its flow rate is 8 L/minute. The pressure of the nebulizer gas is brought to 2700 hPa. In particular, the MRM (“Multiple Reaction Monitoring”) transitions m/z 541.1→382.1 and m/z 541.1→161, corresponding to the flocoumafen signal, are analysed.
Extraction of Flocoumafen from the Liver of Rats Tube-Fed with Flocoumafen
About 0.525 g (±0.025 g) of rat liver is weighed out accurately and placed in a 50 mL polypropylene tube. 10 mL of acetone are added and the suspension is homogenized using an Ultra-Turrax® homogenizer/disperser for a time of about 30 seconds. The homogenizer/disperser shaft is rinsed with hot water and then twice with 20 mL of acetone in a polypropylene tube. The homogenate is centrifuged for 5 minutes at a centrifugation speed of 3000 rpm (revolutions per minute). The supernatant is collected and transferred into a test tube. The sample is subjected to evaporation under a stream of nitrogen (N2) at a temperature of 40° C. so as to form a dry extract.
1 mL of acetonitrile is added to the tube containing the dry extract so as to dissolve it. The acetonitrile solution is washed twice successively with 1 mL of hexane. The lipid-free extract is dried under a stream of nitrogen (N2) at a temperature of 40° C. and is then taken up in 0.5 mL of methanol and dissolved by vortex stirring. 0.5 mL of ultra-pure (Milli-Q) water is then added. The sample is vortex-homogenized.
1 mL of dichloromethane (CH2Ct2), then 1 mL of methanol (CH3OH), then 1 mL of ultra-pure (Milli-Q) water are passed through an Oasis HLB 1 cc cartridge (WAT094225, Waters). The lipid-free liver extract (1 mL MeOH/Milli-Q H2O) containing flocoumafen is then loaded onto the top of the cartridge beforehand. The liver extract penetrates through the cartridge by gravity on contact with the solid phase of the cartridge. 1 mL of washing solution formed from methanol (CH3OH) and ultra-pure water (H2O) in a 90/10 volume proportion is loaded onto the top of the cartridge. The cartridge is dried by suction under vacuum connected to the bottom of the cartridge. 1 mL of eluting solution formed from dichloromethane (CH2Cl2) and methanol (CH3OH) in a 90/10 volume proportion is then loaded onto the top of the cartridge and an eluate comprising flocoumafen is collected at the bottom of the cartridge. The solvent of the eluate is evaporated off under a stream of nitrogen (N2) at a temperature of 40° C. The sample is taken up in 0.5 mL of acetonitrile (NC—CH3) and the acetonitrile solution containing flocoumafen is filtered through a 0.2 μm porosity filter.
Hepatic Persistence of the Configurational Stereoisomers (E1, E2, E3 and E4) of Flocoumafen in Rats
A solution comprising flocoumafen in a mixture of vegetable oil and 5% of DMSO so that the amount of flocoumafen ingested by each rat is about 2.3 mg per kilogram of rat is administered orally (per os) to 8-week-old male and female laboratory rats (Sprague-Dawley rats, Charles River, Saint-Germain-sur-l'Arbresle, France) weighing between 180 and 200 g. The tube-fed rats are treated daily by subcutaneous administration of a dose of vitamin K1 at a rate of 1 U per rat so as to keep the rats alive throughout the experiment. […]

Where [1] appears, read: female rats, D+1 after oral tube-feeding of flocoumafen about 2.3 mg/kg (mixture of 4 stereoisomers).
Where [2] appears, read: female rats, D+3 after oral tube-feeding of flocoumafen about 2.3 mg/kg (mixture of 4 stereoisomers).
[3] abbreviates: female rats, D+7 after oral tube-feeding of flocoumafen about 2.3 mg/kg (mixture of 4 stereoisomers).
The mark [4] stands for this setting: male rats, D+1 after oral tube-feeding of flocoumafen about 2.3 mg/kg (mixture of 4 stereoisomers).
The mark [5] stands for this setting: male rats, D+3 after oral tube-feeding of flocoumafen about 2.3 mg/kg (mixture of 4 stereoisomers).
[6] abbreviates: male rats, D+7 after oral tube-feeding of flocoumafen about 2.3 mg/kg (mixture of 4 stereoisomers).

Where two headings read alike, the source gives them in different places.

Four molecules from patent publication US10654822B2, “Composition and rodenticidal bait comprising flocoumafen, and process for controlling target rodent pests” (priority 2015, dated 2020) can be followed below.

With `O=c1oc2ccccc2c(O)c1C1CC(c2ccc(OCc3ccc(C(F)(F)F)cc3)cc2)Cc2ccccc21` (single isomer, unassigned) [Enantiomer E1, flocoumafen], the Hepatic concentration under setting [1] is given as 4585 ng/g; the Hepatic concentration under setting [2] worked out at 2692 ng/g; the Hepatic concentration under setting [3] was found to be 1196 ng/g; the Hepatic concentration under setting [4] was determined as 196 ng/g; the Hepatic concentration under setting [5] is reported as 47 ng/g; the Hepatic concentration under setting [6] worked out at 0 ng/g.

`O=c1oc2ccccc2c(O)c1C1CC(c2ccc(OCc3ccc(C(F)(F)F)cc3)cc2)Cc2ccccc21` (single isomer, unassigned) [Enantiomer E3, flocoumafen]: the Hepatic concentration reads like this: under setting [1], 5478 ng/g; under setting [2], 2734 ng/g; under setting [3], 1228 ng/g; under setting [4], 3301 ng/g; under setting [5], 1862 ng/g; under setting [6], 647 ng/g.

`O=c1oc2ccccc2c(O)c1C1CC(c2ccc(OCc3ccc(C(F)(F)F)cc3)cc2)Cc2ccccc21` (single isomer, unassigned) [Enantiomer E2, flocoumafen]: the Hepatic concentration was found to be 5396 ng/g under setting [1]; 2522 ng/g under setting [2]; 469 ng/g under setting [3]; 3904 ng/g under setting [4]; 1962 ng/g under setting [5]; 319 ng/g under setting [6].

For the molecule `O=c1oc2ccccc2c(O)c1C1CC(c2ccc(OCc3ccc(C(F)(F)F)cc3)cc2)Cc2ccccc21` (single isomer, unassigned) [Enantiomer E4, flocoumafen], the Hepatic concentration stood at 10342 ng/g under setting [1]; 7765 ng/g under setting [2]; 5054 ng/g under setting [3]; 8143 ng/g under setting [4]; 9906 ng/g under setting [5]; 2623 ng/g under setting [6].
